We go through one substance from patent US10786582B2, “Gd(III)-dithiolane gold nanoparticle conjugates” (Northwestern University, priority 2015, dated 2020).

The data set is described as follows: r1 relaxivity of dt-Gd(III) nanoconjugates, Bruker minispec 60 MHz. The data set is classed as physicochemical. As to conditions: per Gd(III); 60 MHz (1.41 T), 37° C., water plus 0.01% tween 20. As to the method: A stock solution of backfilled dt-Gd(III) SNA conjugates was made (700 uL). This stock was serially diluted four times for a total of five solutions. Solutions were heated to 37° C. and two hundred μL of each concentration was placed into a Bruker minispec mq60 NMR spectrometer (60 MHz) for measurement of T1 relaxation time. Data were collected using an inversion recovery pulse sequence using 4 averages, a 15 s repetition time and 10 data points. The remaining volumes of each solution were utilized for ICP analysis of [Gd(III)]. The inverse of the longitudinal relaxation time (1/T1, s−1) was plotted versus the Gd(III) concentration (mM). […] Relaxivities of DNA-Gd@spheres, Gd(III)-DNA and complex 5 were collected by the analogous procedure (Table 3, FIG. 7).

Take “2,2′2″(10(3-(((1-(5-(1,2-dithiolan-3-yl)pentyl)-1,2,3-triazol-4-yl)methyl)amino)-3-oxopropyl)-1,4,7,10-tetraazacyclododecyl-gadolinium(III) complex [dt-Gd(III)]”: the r1 relaxivity ionic is 4.9 mM⁻¹ s⁻¹.
